According to article PMC4623604, “Discovery of Small Molecules that Inhibit the Disordered Protein, p27^Kip1” (Scientific Reports, 2015):

Assays:
[1] = target: T1, p27-D2-FL/Cdk2/cyclin A (Homo sapiens, UniProt P46527, C99S/R93C); test: Fluorescence anisotropy displacement of p27-D2-FL from Cdk2/cyclin A; type: binding; conditions: 20 nM p27-D2-FL, 300 nM Cdk2/cyclin A, SJ403 0-3 mM; read-out: IC50, reduction of fluorescence anisotropy of p27-D2-FL (displacement from Cdk2/cyclin A)
T1 construct: p27-D2 (residues 58-105 of human p27); 6xHis (N, cleaved yes); made in house; host or cells: E. coli for p27-D2
Description: We used the Group 2 molecule, SJ403 (Suppl. Table 1b), to test our hypothesis that molecules that bind to p27 can alter its Cdk regulatory function. […] We first used fluorescence anisotropy (FA) to monitor displacement of a single-cysteine (Cys) mutant of p27-D2, with arginine 93 mutated to Cys (R93C) and labeled with Alexa Fluor 488 (p27-D2-FL), from Cdk2/cyclin A by SJ403.
The p27-D2-C99S-R93C mutant was conjugated with Alexa Fluor488-C5-Maleimide (Life Technologies, p27-D2-FL) in buffer containing 20 mM Na phosphate, pH7.3, 20 mM NaCl according to the manufacturer’s protocol. The conjugated protein was further purified by reverse-phase high performance liquid chromatography (HPLC) using a C4 column (Vydac) and 0.1% trifluoroacetic acid-containing water/acetonitrile solvent system. Lyophilized HPLC fractions were resuspended in buffer containing 20 mM Na phosphate, pH 7, 200 mM NaCl, 3.5 mM TCEP. Fluorescence anisotropy measurements were performed at 25 °C on a Horiba Fluorolog 3 spectrofluorometer. Briefly, p27-D2-FL (20 nM) was mixed with Cdk2/Cyclin A (300 nM) and added to the required amount of lyophilized compound (SJ403). All samples have been incubated overnight in the dark at 4 °C prior to fluorescence measurements. Fluorescence anisotropy binding data was analyzed using KaleidaGraph. […]

[2] = target: T2, p27-D2/Cdk2/cyclin A (Homo sapiens, UniProt P46527); test: Cdk2/cyclin A kinase activity assay in the presence of p27-D2 (restoration of activity); type: biochemical
T2 construct: p27-D2 (residues 58-105 of human p27); 6xHis (N, cleaved yes); made in house; host or cells: E. coli for p27-D2
Experimental: Figure 6 The small molecule SJ403 displaces p27-D2 from Cdk2/cyclin A and partially restores Cdk2 kinase activity. Analysis of Cdk2 kinase activity [within the Cdk2/cyclin A complex (200 pM) using Histone H1 as the substrate] in the presence of p27-D2 (200 nM) and varied concentrations of SJ403 (from 10 μM to 3 mM) (a) and varied concentrations of SJ403 alone (b). Cdk2 is partially active under the starting conditions in (a) and activity is enhanced through addition of SJ403. In the absence of p27-D2 (b), addition of SJ403 is associated with Cdk2 inhibition. All experiments were performed in triplicate and average values and the standard deviations of the means are shown.
Cdk2/Cyclin A (200 pM) was mixed with Histone H1 (15 μM; EMD Millipore), p27-D2 (200 nM) and varied amounts of lyophilized SJ403 and incubated overnight at 4 °C. The effect of the SJ403 compound on Cdk2 activity was determined by performing similar experiments in the absence of p27-D2. […] The reactions were quenched by addition of SDS-gel loading buffer (5 μL) and then analyzed by SDS-PAGE (10 μL). The gels were dried at 70 °C under vacuum and a phosphoimager (GE Healthcare, Piscataway, NJ) was used to quantify the ^32P-Histone H1 bands. IC50 values were determined by curve fitting using KaleidaGraph software. […]

T2 sequence (P46527 58-105): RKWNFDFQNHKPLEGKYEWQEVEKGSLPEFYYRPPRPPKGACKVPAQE
T1 sequence (P46527 58-105 R93C/C99S): as the sequence (P46527 58-105) above, with R36C, C42S counted along it

IC50 [1]: 475 ± 67 µM
Cdk2 kinase activity after titration of SJ403 (of full kinase activity) ([2]; 200 nM p27-D2, 200 pM Cdk2/cyclin A, SJ403 10 μM to 3 mM, start 13%): ~ 20%
increase in Cdk2 kinase activity ([2]; from 13% to ~20% of full activity, 200 nM p27-D2): > 50%
SMILES: CCn1c(C)c(C)n2c3c(=O)n(C)c(=O)n(C)c3nc12 [SJ403]
